Common to all, as to format: binding, human
Experiment [1] relates to anti-citrullinated protein autoantibodies (ACPAs). Kind of experiment: ELISA of citrullinated/native fibrin peptide pairs with serum mixtures A and B and control mixture (delta OD). Particulars: mean of two determinations. As for the experimental part:
Each pair of peptides (citrullinated and noncitrullinated) was assayed by ELISA with a mixture, in equal parts, of 10 sera having no ACPAs (control mixture) and with the 2 mixtures A and B described in Example 1.
Each pair of peptides (native and citrullinated form) was tested on the same plate and a pair of control peptides—citrullinated “filaggrin” peptide cfc6 and its corresponding native peptide cf0 (Schellekens G A, 1998, mentioned above)—was included in each experiment, which made it possible to calculate an inter-assay coefficient of variation and to perform corrections.
All the incubations were carried out for 1 h at 4° C. and were followed by washing in PBS-0.1% Tween. The peroxidase activity was visualized with a solution of ortho-phenylenediamine (2 mg/ml—Sigma) in hydrogen peroxide (0.03%—Sigma). The reaction was stopped after 5 minutes by adding 4M sulfuric acid, and the optical density (OD) at 492 nm was measured by virtue of an automatic spectrophotometer (Multiskan, Thermo Labsystems).
The specific reactivity of the mixtures of sera with regard to the citrullinated peptides corresponded to the difference between the OD obtained with the citrullinated peptide and that obtained with the corresponding native peptide (delta OD). The results correspond to the mean of two determinations. Any citrullinated peptide making it possible to obtain a delta OD of greater than 0.250 for at least one of the two mixtures A and B after coating in at least one of the three buffers, was considered to be reactive.
Background: In an ELISA, binding on a coated surface is turned into a signal by an enzyme label.

For experiment [2] the test system is unchanged. Kind of experiment: ELISA of reactive citrullinated fibrin peptides with the 20 individual sera of mixtures A and B. Particulars: for delta OD: best coating buffer per peptide. As for the experimental part:
The 14 peptides carrying the most reactive epitopes (delta OD≧0.5 for one or other of the mixtures of serum (A and B) with at least one of the three coating buffers) were tested independently with the 20 sera constituting the mixtures A and B, in order to evaluate the reactivity profile of each of these peptides. The tests were carried out by ELISA under the same conditions as in Example 2 above, with the exception that, for each pair of peptides, the coating buffer selected was that that had made it possible to obtain the strongest reactivity with respect to this peptide during the screening (the buffer for which the sum of the delta ODs obtained respectively for the serum mixtures A and B was at a maximum). […] Thus, for each serum, the dilution that made it possible to obtain an OD of 1 by ELISA on deiminated fibrinogen was selected (Nogueira L, 2002, mentioned above). The dilutions ranged from 1/20 to 1/2700.

Experiment [3] has the same test system. The experiment in a line: ELISA comparing amidated and nonamidated β60-74Cit60,72,74 with serum mixtures A and B. Particulars: for delta OD: coating in PBS, versus noncitrullinated β60-74, mean of two experiments. An excerpt: ELISA plates were coated with the peptide β60-74Cit60,72,74, in which the C-terminal function of the carboxy-terminal citrullyl residue is not amidated (form carrying a terminal COOH function, hereinafter referred to as “nonamidated form”), with the peptide […], in which the C-terminal function of the carboxy-terminal citrullyl residue is amidated (form carrying a terminal CONH2 function, hereinafter referred to as “amidated form”) and the noncitrullinated peptide β60-74 (in which the C-terminal function of the carboxy-terminal arginyl residue is not amidated), all diluted in PBS. The serum mixtures A and B described in Example 1 were tested according to the method described in Example 2. As in Example 2, the specific reactivity of the peptide in nonamidated form or in amidated form corresponded to the difference between the OD obtained with these two citrullinated peptides and that obtained with the noncitrullinated peptide β60-74. […] The results correspond to the mean of two experiments, each comprising two determinations.

Marks after values point to notes of the source that are not given here.

Regarding “β60-74Cit60,72,74: citrullinated synthetic peptide, fibrin β-chain residues 60-74, C-terminal citrullyl amidated; fits SEQ ID NO: 1 X1PAPPPISGGGYX2AX3 (XPAPPPISGGGYXAX; HELM PEPTIDE1{[Cit].P.A.P.P.P.I.S.G.G.G.Y.[Cit].A.[Cit].[am]}$$$$V2.0; N-terminus assumed; SMILES CC[C@H](C)[C@H](NC(=O)[C@@H]1CCCN1C(=O)[C@@H]1CCCN1C(=O)[C@@H]1CCCN1C(=O)[C@H](C)NC(=O)[C@@H]1CCCN1C(=O)[C@@H](N)CCCNC(N)=O)C(=O)N[C@@H](CO)C(=O)NCC(=O)NCC(=O)NCC(=O)N[C@@H](Cc1ccc(O)cc1)C(=O)N[C@@H](CCCNC(N)=O)C(=O)N[C@@H](C)C(=O)N[C@@H](CCCNC(N)=O)C(N)=O)”, the “delta OD (citrullinated minus native peptide, 492 nm)” value in experiment [1] (Mixture A of sera 1/50, coating buffer PBS pH 7.4) stood at 2.06; in experiment [1] (Mixture A of sera 1/50, coating buffer acetate pH 5.0), 1.02; in experiment [1] (Mixture A of sera 1/50, coating buffer carbonate pH 9.0) it was 1.27; in experiment [1] (Mixture B of sera 1/50, coating buffer PBS pH 7.4), 2.69; in experiment [1] (Mixture B of sera 1/50, coating buffer acetate pH 5.0) it was 2.83; in experiment [1] (Mixture B of sera 1/50, coating buffer carbonate pH 9.0) it was 2.72. Also, the “Number of positive sera” value in experiment [2] (sera with delta OD not <0.25 out of sera tested (20, or 10 of mixture A only)) is reported as 14/20. Besides, the “delta OD” value is reported as 3.48 in experiment [2] (serum 95.0256, dilution 1/35); 0.31 in experiment [2] (serum 97.0169, dilution 1/400); 1.23 in experiment [2] (serum 97.0244, dilution 1/2700); 1.93 in experiment [2] (serum 97.0311, dilution 1/200); 1.73 in experiment [2] (serum 97.0323, dilution 1/120); 0.71^c in experiment [2] (serum 97.0459, dilution 1/60). The “delta OD” value in experiment [2] (serum 97.0468, dilution 1/700) was found to be 1.08; in experiment [2] (serum 97.0506, dilution 1/75), 1.93; in experiment [2] (serum 97.0794, dilution 1/50), 0.75; in experiment [2] (serum 97.0796, dilution 1/500) it was 0.36; in experiment [2] (serum 97.0907, dilution 1/300), 1.17; in experiment [2] (serum 97.1210, dilution 1/300), 3.33. Also, the “delta OD” value is 0.37 in experiment [2] (serum 97.1474, dilution 1/20); 1.48 in experiment [2] (serum 97.1548, dilution 1/60); 2.13 in experiment [3] (Mixture A); 2.74 in experiment [3] (Mixture B). Moreover, the “reactivity of amidated versus nonamidated form” value in experiment [3] (serum mixtures A and B, PBS coating) was “clearly greater than that of the nonamidated form”.
